From patent publication US20260078099A1, “COMPOUND, PREPARATION METHOD THEREOF, AND LIPID NANOPARTICLE AND PHARMACEUTICAL COMPOSITION” (priority 2023, published 2026)

What was measured:
LNP zeta potential = assay type: physicochemical; settings: mRNA LNP
Excerpt: Nanoparticle compositions can be characterized by various methods. For example, the morphology and size distribution of nanoparticle compositions can be examined using microscopy (e.g., transmission electron microscopy or scanning electron microscopy). The zeta potential can be measured using dynamic light scattering or potentiometric titration. Dynamic light scattering can also be used to determine particle size. Instruments such as the Zetasizer Nano ZS (Malvern Instruments Ltd., Malvern, Worcestershire, UK) can also be used to measure multiple characteristics of nanoparticle compositions, such as particle size, polydispersity index, and zeta potential.
[…]: The zeta potential of the nanoparticle composition can indicate the electrophoretic potential of the composition. For example, zeta potential may describe the surface charge of the nanoparticle composition. Nanoparticle compositions with relatively low positive or negative charges are generally desirable, as materials with higher charges may interact undesirably with cells, tissues, and other components in the body. In some embodiments, the zeta potential of the nanoparticle composition may be about −10 mV to about +20 mV, about −10 mV to about +15 mV, about −10 mV to about +10 mV, about −10 mV to about +5 mV, about −10 mV to about 0 mV, about −10 mV to about −5 mV, about −5 mV to about +20 mV, about −5 mV to about +15 mV, about −5 mV to about +10 mV, about −5 mV to about +5 mV, about −5 mV to about 0 mV, about 0 mV to about +20 mV, about 0 mV to about +15 mV, about 0 mV to about +10 mV, about 0 mV to about +5 mV, about +5 mV to about +20 mV, about +5 mV to about +15 mV, or about +5 mV to about +10 mV.

mice = assay: Bioluminescent study, intramuscular injection of F-luc mRNA LNPs; assay type: in vivo; settings: F-luc luminescence flux normalized to MC3; 0.25 mg/kg intramuscular, mice n=3, 6-hour time point
Method: The efficacy of nanoparticle compositions was evaluated using bioluminescent studies. A dose of 0.25 mg/kg (mpk) of the formulation was administered to mice (n=3) via intramuscular injection, and bioluminescence was measured at a 6-hour time point. The test lipid nanoparticles from the MC3 formulation were evaluated, and in some cases, controls (e.g., PBS controls) were assessed for comparison.
The characteristics of the test lipid nanoparticles measured from the test groups, including F-luc luminescence intensity, are listed in the table below.

[1] = LNP encapsulation efficiency (Quant-it Ribogreen); assay type: physicochemical; settings: mRNA LNP, cationic lipid/DSPC/cholesterol/PEG-lipid 50:10:38.5:1.5
Excerpt: Encapsulation Efficiency: The encapsulation efficiency of a therapeutic and/or prophylactic agent refers to the amount of the therapeutic and/or prophylactic agent encapsulated within or otherwise associated with the nanoparticle composition relative to the initial amount provided during preparation. Encapsulation efficiency is desirably high (such as close to 100%). Encapsulation efficiency can be measured, for example, by comparing the amount of therapeutic and/or prophylactic agent in a solution containing the nanoparticle composition before and after disruption of the nanoparticle composition using one or more organic solvents or detergents. Fluorescence can be used to measure the amount of free therapeutic and/or prophylactic agent (e.g., RNA) in solution. For the nanoparticle compositions described herein, the encapsulation efficiency of the therapeutic and/or prophylactic agent may be at least 50%, such as 50%, 55%, 60%, 65%, 70%, 75%, 80%, 85%, 90%, 91%, 92%, 93%, 94%, 95%, 96%, 97%, 98%, 99%, or 100%. In some embodiments, the encapsulation efficiency may be at least 80%. In certain embodiments, the encapsulation efficiency may be at least 90%.
(§1) In summary, the cationic lipid described herein, DSPC, cholesterol, and PEG-lipid were dissolved in ethanol at a molar ratio of 50:10:38.5:1.5 and diluted in 10 mM to 50 mM citrate buffer at pH 4 with mRNA. Using a microfluidic device, the lipid ethanol solution was mixed with mRNA aqueous solution at a volume ratio of 1:3 and a total flow rate ranging from 6-30 mL/min, preparing LNPs with a total lipid to mRNA weight ratio of approximately 10:1 to 30:1. Ethanol was removed by dialysis and replaced with PBS. Finally, the lipid nanoparticles were filtered through a 0.22 μm sterile filter.
(§2) The size of lipid nanoparticles was measured by dynamic light scattering using a Malvern Zetasizer Nano ZS (Malvern, UK) with a 90° scattering detection mode. The encapsulation efficiency of lipid nanoparticles was determined using the Quant-it Ribogreen RNA Quantitation Kit (Thermo Fisher Scientific, UK) according to the manufacturer's instructions. The apparent pKa of LNP formulations correlates with the delivery efficiency of nucleic acids by LNPs in vivo. The apparent pKa ranges from approximately 5 to 7. An analysis based on fluorescence from 2-(p-tolylamino)-6-naphthalenesulfonic acid (TNS) was used to determine the apparent pKa of formulations. As described above, LNP formulations containing cationic lipid/DSPC/cholesterol/DMG-PEG (50/10/38.5/1.5 mol %) in PBS were prepared. A 300 μM stock solution of TNS in distilled water was prepared. LNP formulations were diluted to 0.1 mg/mL total lipid in 3 mL of buffer solution containing 50 mM sodium citrate, 50 mM sodium phosphate, 50 mM sodium borate, and 30 mM sodium chloride (pH ranged from 3 to 9). […] S-shaped curve best-fit analysis was applied to the fluorescence data, and the pKa value was measured as the pH value producing half-maximal fluorescence intensity.

[2] = LNP size and PDI by dynamic light scattering; assay type: physicochemical; settings: for PDI / Size (nm): mRNA LNP, cationic lipid/DSPC/cholesterol/PEG-lipid 50:10:38.5:1.5
Method: as §1, §2

Row | SMILES | Zeta potential (mV) (LNP zeta potential) | Relative Total flux (mice) | Encapsulation efficiency (%) [1] | PDI [2] | Size (nm) [2] | particle sizes by dynamic light scattering (FIG. 22) ([2]; mRNA-loaded LNPs)
1 | CCCCCCCC(C(=O)NCCCCCCCCCC(=O)OC(CCCCCC)CCCCCC)N(CCN1CCN(CCO)CC1)C(=O)CCCCCCCCCC(=O)OC(CCCCCC)CCCCCC (stereo not shown) [Compound B16] | 5.42 mV | A (A: ≥2) | 94.62% | 0.593 | 57.19 nm | 
2 | CCCCCCCCNC(=O)C(CCCCCCCC)N(CCN(CC)CCO)C(=O)CCCCCCC(=O)OC(CCCCCCCC)CCCCCCCC (stereo not shown) [Compound B29] | 1.69 mV | A (A: ≥2) | 93.73% | 0.10 | 62.10 nm | 
3 | CCCCCCCC(C(=O)NCCCCCCCCCC(=O)OC(CCCCCC)CCCCCC)N(CCCN(C)C)C(=O)CCCCCCCCCC(=O)OC(CCCCCC)CCCCCC (stereo not shown) [Compound A12] | −9.55 mV | C (C: ≥0.1 and <1) | 24.84% | 0.207 | 63.48 nm | 
4 | CCCCCCCCNC(=O)C(CCCCCCC)N(CCCN(C)C)C(=O)CCCCCCC(=O)OC(CCCCCCCC)CCCCCCCC (stereo not shown) [Compound A30] | 0.47 mV | B (B: ≥1 and <2) | 96.65% | 0.12 | 86.87 nm | 
5 | CCCCCCCCC(C(=O)NCCCCCCCCCC(=O)OC(CCCCCC)CCCCCC)N(CCCN1CCCC1)C(=O)CCCCCCCCCC(=O)OC(CCCCCC)CCCCCC (stereo not shown) [Compound A1] | −12.25 mV | B (B: ≥1 and <2) | 67.41% | 0.135 | 82.96 nm | 
6 | CCCCCCCCC(C(=O)NCCCCCCCCCC(=O)OCC12CC3CC(CC(C3)C1)C2)N(CCCN1CCCC1)C(=O)CCCCCCCCCC(=O)OC(CCCCCC)CCCCCC (stereo not shown) [Compound A8] | −19.03 mV | D (D: <0.1.) | 92.88% | 0.16 | 66.98 nm | 
7 | CCCCCCCC(C(=O)NCCCCCCCCCC(=O)OC(CCCCCC)CCCCCC)N(CCCNC(=S)N(C)C)C(=O)CCCCCCCCCC(=O)OC(CCCCCC)CCCCCC (stereo not shown) [Compound B21] | 6.22 mV | B (B: ≥1 and <2) | 93.97% | 0.388 | 84.45 nm | 
8 | CCCCCCCC(C(=O)NCCCCCCCCCC(=O)OC(CCCCCC)CCCCCC)N(CCN(CCO)C1CCC1)C(=O)CCCCCCCCCC(=O)OC(CCCCCC)CCCCCC (stereo not shown) [Compound B11] | −9.69 mV | A (A: ≥2) | 81.83% | 0.205 | 70.27 nm | 
9 | CCCCCCC(CCCCCC)OC(=O)CCCCCCCCCNC(=O)C(CCCCCCCCCC(=O)OC(CCCCCC)CCCCCC)N(CCCN1CCCC1)C(=O)CCCN1CCCC1 (stereo not shown) [Compound E8] | −18.58 mV | B (B: ≥1 and <2) | 96.30% | 0.182 | 92.75 nm | 
10 | CCCCCCC(CCCCCC)OC(=O)CCCCCCCCCNC(=O)CN(CCN(C)CCN(CC(=O)NCCCCCCCCCC(=O)OC(CCCCCC)CCCCCC)C(=O)CCCCCCCCCC(=O)OC(CCCCCC)CCCCCC)C(=O)CCCCCCCCCC(=O)OC(CCCCCC)CCCCCC [Compound D5] | −17.80 mV | A (A: ≥2) | 96.72% | 0.183 | 78.42 nm | 
11 | CCCCCCCCC(C(=O)NCCCCCCCCCC(=O)OC(CCCCCC)CCCCCC)N(CCCN(C)C)C(=O)CCCCCCCCCC(=O)OC(CCCCCC)CCCCCC (stereo not shown) [Compound A11] | −2.89 mV | D (D: <0.1.) | 71.39% | 0.075 | 225.6 nm | 
12 | CCCCCCCCCCCOC(=O)CCCCCN(CCO)CCCCCCCC(=O)OC(CCCCCCCC)CCCCCCCC [SM-102, reference compound] | −1.23 mV | A (A: ≥2) | 96.25% | 0.058 | 89.08 nm | approximately 100 nm
13 | CCCCCCCCC(CCCCCC)COC(=O)CCCCCCCCCNC(=O)C(CCCCCCCC)N(CCCN1CCCC1)C(=O)CCCCCCCCCC(=O)OCC(CCCCCC)CCCCCCCC (stereo not shown) [Compound A4] | 5.65 mV | D (D: <0.1.) | 97.34% | 0.202 | 72.85 nm | 
14 | CCCCC/C=C\C/C=C\CCCCCCCCNC(=O)C(CCCCCCCC)N(CCCCCCCC/C=C\C/C=C\CCCCC)C(=O)CCCN1CCN(C)CC1 (stereo not shown) [Compound C5] | −14.75 mV | D (D: <0.1.) | 91.26% | 0.198 | 64.58 nm | 
15 | CCCCCCCCC(C(=O)NCCCCCCCCCC(=O)OCCCCCC)N(CCCN1CCCC1)C(=O)CCCCCCCCCC(=O)OCCCCCC (stereo not shown) [Compound A6] | −9.54 mV | A (A: ≥2) | 84.80% | 0.234 | 55.75 nm | 
